IC50 data for 71 molecules are collected here from US20090047246A1, “NOVEL INHIBITORS OF HEPATITIS C VIRUS REPLICATION” (InterMune, Inc., priority 2007, published 2009).

The experiment concerns the target T1, HCV NS3 helicase (Hepatitis C virus genotype 1b, UniProt P26663).
T1 construct: full-length NS3 (1-631), purified at Array BioPharma
Put plainly: HCV Helicase Prompt FRET Assay (Example A). It counts as biochemical. The note with it: read-out: IC50 Activity. The method, boiled down:
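Full-length NS3 (1-631), 5 or 6 nM, preincubated 5 min with compound, then unwinds 50 nM FAM/BHQ-1 duplex substrate with 250 nM capture strand and 300 μM ATP in 25 mM MOPS pH 7.0, 1.5 mM MgCl2, 0.005% Triton X-100, 2% DMSO. Fluorescence (485/535 nm) followed ~30 min at room temperature; IC50 from initial rates by 4- or 5-parameter fit.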

[1] abbreviates: HCV NS3 helicase, tables do not say whether Example A or Example B assay.
The mark [2] stands for this setting: Table 21, compounds made using Scheme 28.

Each structure is given as a SMILES string. Where two headings read alike, the source gives them in different places.

T1 sequence (P26663 1027-1657): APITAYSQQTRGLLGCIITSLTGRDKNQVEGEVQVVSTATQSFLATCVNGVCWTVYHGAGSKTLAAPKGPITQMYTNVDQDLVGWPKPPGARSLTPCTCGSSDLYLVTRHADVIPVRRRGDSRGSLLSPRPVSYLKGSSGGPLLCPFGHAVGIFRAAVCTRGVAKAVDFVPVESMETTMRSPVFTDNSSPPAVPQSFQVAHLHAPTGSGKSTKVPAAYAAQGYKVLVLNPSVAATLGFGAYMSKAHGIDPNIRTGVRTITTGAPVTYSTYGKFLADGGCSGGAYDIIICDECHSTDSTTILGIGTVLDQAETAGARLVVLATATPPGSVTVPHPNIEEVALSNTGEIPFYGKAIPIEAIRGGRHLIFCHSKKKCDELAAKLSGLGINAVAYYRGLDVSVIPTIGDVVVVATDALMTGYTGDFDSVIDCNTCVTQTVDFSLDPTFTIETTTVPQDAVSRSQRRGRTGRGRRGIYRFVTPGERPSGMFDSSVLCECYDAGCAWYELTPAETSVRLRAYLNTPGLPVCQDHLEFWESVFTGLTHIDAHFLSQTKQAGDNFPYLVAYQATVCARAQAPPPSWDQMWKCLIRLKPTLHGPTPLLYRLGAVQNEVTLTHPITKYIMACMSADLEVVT

Regarding `O=C(O)Cc1cn(Cc2ccc(Oc3cc(C(F)(F)F)cc(C(F)(F)F)c3)cc2)c2ccccc12` [Example 512], the concentration for half-maximal inhibition (IC50) under setting [1] is below 10 µM.

With `CCOC(=O)Cc1cn(Cc2ccc(Oc3cc(Cl)cc(Cl)c3)cc2)c2ccccc12` [Example 515], under setting [1], the IC50 is below 10 µM.

In the case of `CCOC(=O)Cc1cn(Cc2ccc(Oc3ccc(C(F)(F)F)cc3)cc2)c2ccccc12` [Example 516], the IC50 under setting [1] was in the range of 10 to 50 µM.

On to `CCOC(=O)Cc1cn(Cc2ccc(Oc3cc(C(F)(F)F)cc(C(F)(F)F)c3)cc2)c2ccccc12` [Example 517], for which the IC50 under setting [1] was in the range of 10 to 50 µM.

`O=C(O)Cc1cn(Cc2ccc(Oc3cccc(F)c3)cc2)c2ccccc12` [Example 518]: under setting [1], the 50% inhibitory concentration (IC50) is below 10 µM.

As to `CN(c1cccc(Cn2cc(CC(=O)O)c3ccccc32)c1)c1ccccc1F` [Example 520], under setting [1], the IC50 was below 10 µM.

As for `CN(c1cccc(F)c1)c1cccc(Cn2cc(CC(=O)O)c3ccccc32)c1` [Example 521], the IC50 under setting [1] was below 10 µM.

For the molecule `CN(c1ccc(F)cc1)c1cccc(Cn2cc(CC(=O)O)c3ccccc32)c1` [Example 522], the IC50 under setting [1] is below 10 µM.

As for `CN(c1cccc(Cn2cc(CC(=O)O)c3ccccc32)c1)c1ccccc1Cl` [Example 523], the half-inhibitory concentration (IC50) under setting [1] is below 10 µM.

As for `CN(c1cccc(Cl)c1)c1cccc(Cn2cc(CC(=O)O)c3ccccc32)c1` [Example 524], the 50% inhibitory concentration (IC50) under setting [1] was below 10 µM.

Take `CN(c1ccc(Cl)cc1)c1cccc(Cn2cc(CC(=O)O)c3ccccc32)c1` [Example 525]: the IC50 under setting [1] is below 10 µM.

Regarding `COc1ccccc1N(C)c1cccc(Cn2cc(CC(=O)O)c3ccccc32)c1` [Example 526], the IC50 under setting [1] was 10 to 50 µM.

As to `COc1cccc(N(C)c2cccc(Cn3cc(CC(=O)O)c4ccccc43)c2)c1` [Example 527], the IC50 under setting [1] was below 10 µM.

Take `COc1ccc(N(C)c2cccc(Cn3cc(CC(=O)O)c4ccccc43)c2)cc1` [Example 528]: under setting [1], the IC50 was below 10 µM.

Take `CN(c1cccc(Cn2cc(CC(=O)O)c3ccccc32)c1)c1ccccc1C(F)(F)F` [Example 529]: the 50% inhibitory concentration (IC50) under setting [1] is below 10 µM.

As to `CN(c1cccc(Cn2cc(CC(=O)O)c3ccccc32)c1)c1cccc(C(F)(F)F)c1` [Example 530], under setting [1], the IC50 was below 10 µM.

For `CN(c1ccc(C(F)(F)F)cc1)c1cccc(Cn2cc(CC(=O)O)c3ccccc32)c1` [Example 531], under setting [1], the concentration for half-maximal inhibition (IC50) was below 10 µM.

Regarding `CN(c1cccc(Cn2cc(CC(=O)O)c3ccccc32)c1)c1cccc(F)c1F` [Example 533], under setting [1], the IC50 was below 10 µM.

Consider `CN(c1cccc(Cn2cc(CC(=O)O)c3ccccc32)c1)c1ccc(F)cc1F` [Example 534], for which the IC50 under setting [1] is 10 to 50 µM.

On to `CN(c1cccc(Cn2cc(CC(=O)O)c3ccccc32)c1)c1cc(F)ccc1F` [Example 535], for which the IC50 under setting [1] lay in the range of 10 to 50 µM.

On to `CN(c1cccc(Cn2cc(CC(=O)O)c3ccccc32)c1)c1c(F)cccc1F` [Example 536], for which the 50% inhibitory concentration (IC50) under setting [1] was 10 to 50 µM.

On to `CN(c1cccc(Cn2cc(CC(=O)O)c3ccccc32)c1)c1cccc(Cl)c1Cl` [Example 537], for which the concentration for half-maximal inhibition (IC50) under setting [1] was below 10 µM.

Turning to `CN(c1cccc(Cn2cc(CC(=O)O)c3ccccc32)c1)c1ccc(Cl)cc1Cl` [Example 538], the IC50 under setting [1] is below 10 µM.

Take `CN(c1cccc(Cn2cc(CC(=O)O)c3ccccc32)c1)c1cc(Cl)ccc1Cl` [Example 539]: under setting [1], the IC50 was below 10 µM.

Consider `CN(c1cccc(Cn2cc(CC(=O)O)c3ccccc32)c1)c1c(Cl)cccc1Cl` [Example 540], for which the IC50 under setting [1] was below 10 µM.

As to `CN(c1cccc(Cn2cc(CC(=O)O)c3ccccc32)c1)c1ccc(Cl)c(Cl)c1` [Example 541], the concentration for half-maximal inhibition (IC50) under setting [1] was below 10 µM.

As for `COc1ccc(N(C)c2cccc(Cn3cc(CC(=O)O)c4ccccc43)c2)c(OC)c1` [Example 542], the IC50 under setting [1] is below 10 µM.

In the case of `COc1ccc(OC)c(N(C)c2cccc(Cn3cc(CC(=O)O)c4ccccc43)c2)c1` [Example 543], the IC50 under setting [1] is below 10 µM.

Consider `COc1ccc(N(C)c2cccc(Cn3cc(CC(=O)O)c4ccccc43)c2)cc1OC` [Example 544], for which the IC50 under setting [1] was below 10 µM.

On to `CN(c1cccc(Cn2cc(CC(=O)O)c3ccccc32)c1)c1ccc(C(F)(F)F)cc1C(F)(F)F` [Example 545], for which the IC50 under setting [1] lay in the range of 10 to 50 µM.

As for `CN(c1cccc(Cn2cc(CC(=O)O)c3ccccc32)c1)c1cc(C(F)(F)F)ccc1C(F)(F)F` [Example 546], the IC50 under setting [1] is below 10 µM.

`CN(c1cccc(Cn2cc(CC(=O)O)c3ccccc32)c1)c1cc(C(F)(F)F)cc(C(F)(F)F)c1` [Example 547]: the IC50 under setting [1] was below 10 µM.

For `CCOC(=O)Cc1cn(Cc2cccc(N(C)c3cc(Cl)ccc3Cl)c2)c2ccccc12` [Example 548], the IC50 under setting [1] is below 10 µM.

`CCOC(=O)Cc1cn(Cc2cccc(N(C)c3ccc(Cl)c(Cl)c3)c2)c2ccccc12` [Example 550]: the IC50 under setting [1] is above 50 µM.

As to `CCN(c1cccc(Cn2cc(CC(=O)O)c3ccccc32)c1)c1ccccc1Cl` [Example 552], the IC50 under setting [1] was below 10 µM.

On to `CCN(c1cccc(Cn2cc(CC(=O)O)c3ccccc32)c1)c1ccccc1C(F)(F)F` [Example 553], for which the IC50 under setting [1] fell in the range of 10 to 50 µM.

For the molecule `CC(C)N(c1cccc(Cn2cc(CC(=O)O)c3ccccc32)c1)c1ccccc1Cl` [Example 554], under setting [1], the IC50 is below 10 µM.

Take `CC(C)N(c1cccc(Cn2cc(CC(=O)O)c3ccccc32)c1)c1ccccc1C(F)(F)F` [Example 555]: the half-inhibitory concentration (IC50) under setting [1] is below 10 µM.

As to `CN(c1ccc(Cn2cc(CC(=O)O)c3ccccc32)cc1)c1cccc(F)c1` [Example 557], the IC50 under setting [2] is below 10 µM.

For the molecule `CN(c1ccc(F)cc1)c1ccc(Cn2cc(CC(=O)O)c3ccccc32)cc1` [Example 558], the half-inhibitory concentration (IC50) under setting [2] lay in the range of 10 to 50 µM.

Turning to `CN(c1ccc(Cn2cc(CC(=O)O)c3ccccc32)cc1)c1ccccc1Cl` [Example 559], the IC50 under setting [2] is below 10 µM.

With `CN(c1ccc(Cn2cc(CC(=O)O)c3ccccc32)cc1)c1cccc(Cl)c1` [Example 560], under setting [2], the IC50 was below 10 µM.

`CN(c1ccc(Cl)cc1)c1ccc(Cn2cc(CC(=O)O)c3ccccc32)cc1` [Example 561]: the 50% inhibitory concentration (IC50) under setting [2] is below 10 µM.

Regarding `COc1ccccc1N(C)c1ccc(Cn2cc(CC(=O)O)c3ccccc32)cc1` [Example 562], under setting [2], the IC50 was 10 to 50 µM.

As to `COc1cccc(N(C)c2ccc(Cn3cc(CC(=O)O)c4ccccc43)cc2)c1` [Example 563], under setting [2], the IC50 was below 10 µM.

Regarding `COc1ccc(N(C)c2ccc(Cn3cc(CC(=O)O)c4ccccc43)cc2)cc1` [Example 564], the IC50 under setting [2] is below 10 µM.

Consider `CN(c1ccc(Cn2cc(CC(=O)O)c3ccccc32)cc1)c1ccccc1C(F)(F)F` [Example 565], for which the half-inhibitory concentration (IC50) under setting [2] was below 10 µM.

Regarding `CN(c1ccc(Cn2cc(CC(=O)O)c3ccccc32)cc1)c1cccc(C(F)(F)F)c1` [Example 566], the concentration for half-maximal inhibition (IC50) under setting [2] was below 10 µM.

For `CN(c1ccc(Cn2cc(CC(=O)O)c3ccccc32)cc1)c1ccc(C(F)(F)F)cc1` [Example 567], the IC50 under setting [2] is below 10 µM.

On to `CN(c1ccc(Cn2cc(CC(=O)O)c3ccccc32)cc1)c1cccc(F)c1F` [Example 568], for which the IC50 under setting [2] is below 10 µM.

For `CN(c1ccc(Cn2cc(CC(=O)O)c3ccccc32)cc1)c1ccc(F)cc1F` [Example 569], under setting [2], the IC50 is below 10 µM.

As for `CN(c1ccc(Cn2cc(CC(=O)O)c3ccccc32)cc1)c1cc(F)ccc1F` [Example 570], under setting [2], the IC50 is below 10 µM.

Consider `CN(c1ccc(Cn2cc(CC(=O)O)c3ccccc32)cc1)c1c(F)cccc1F` [Example 571], for which the IC50 under setting [2] was in the range of 10 to 50 µM.

With `CN(c1ccc(Cn2cc(CC(=O)O)c3ccccc32)cc1)c1cccc(Cl)c1Cl` [Example 572], the IC50 under setting [2] is below 10 µM.

Consider `CN(c1cccc(Cn2cc(CC(=O)O)c3ccccc32)c1)c1ccc(Cl)cc1Cl` [Example 573], for which, under setting [2], the IC50 was below 10 µM.

`CN(c1ccc(Cn2cc(CC(=O)O)c3ccccc32)cc1)c1cc(Cl)ccc1Cl` [Example 574]: under setting [2], the IC50 was below 10 µM.

As to `CN(c1ccc(Cn2cc(CC(=O)O)c3ccccc32)cc1)c1ccc(Cl)c(Cl)c1` [Example 575], the concentration for half-maximal inhibition (IC50) under setting [2] is below 10 µM.

Regarding `CN(c1ccc(Cn2cc(CC(=O)O)c3ccccc32)cc1)c1c(Cl)cccc1Cl` [Example 576], under setting [2], the 50% inhibitory concentration (IC50) was below 10 µM.

With `COc1ccc(N(C)c2ccc(Cn3cc(CC(=O)O)c4ccccc43)cc2)c(OC)c1` [Example 577], the IC50 under setting [2] fell in the range of 10 to 50 µM.

For `COc1ccc(OC)c(N(C)c2ccc(Cn3cc(CC(=O)O)c4ccccc43)cc2)c1` [Example 578], the concentration for half-maximal inhibition (IC50) under setting [2] is below 10 µM.

For the molecule `COc1ccc(N(C)c2ccc(Cn3cc(CC(=O)O)c4ccccc43)cc2)cc1OC` [Example 579], under setting [2], the IC50 was 10 to 50 µM.

As to `CN(c1ccc(Cn2cc(CC(=O)O)c3ccccc32)cc1)c1ccc(C(F)(F)F)cc1C(F)(F)F` [Example 580], the IC50 under setting [2] is below 10 µM.

For the molecule `CN(c1ccc(Cn2cc(CC(=O)O)c3ccccc32)cc1)c1cc(C(F)(F)F)ccc1C(F)(F)F` [Example 581], the IC50 under setting [2] was below 10 µM.

As to `CN(c1ccc(Cn2cc(CC(=O)O)c3ccccc32)cc1)c1cc(C(F)(F)F)cc(C(F)(F)F)c1` [Example 582], under setting [2], the IC50 was below 10 µM.

In the case of `CCOC(=O)Cc1cn(Cc2ccc(N(C)c3ccccc3F)cc2)c2ccccc12` [Example 583], the IC50 under setting [2] was 10 to 50 µM.

Take `O=C(O)Cc1cn(Cc2ccc(Oc3cccc(F)c3F)cc2)c2ccccc12` [Example 584]: the IC50 under setting [1] is below 10 µM.

As for `O=C(O)Cc1cn(Cc2ccc(Oc3ccc(F)cc3F)cc2)c2ccccc12` [Example 585], under setting [1], the IC50 is below 10 µM.

Turning to `O=C(O)Cc1cn(Cc2ccc(Oc3cc(F)ccc3F)cc2)c2ccccc12` [Example 586], the concentration for half-maximal inhibition (IC50) under setting [1] is below 10 µM.

Regarding `O=C(O)Cc1cn(Cc2ccc(Oc3c(F)cccc3F)cc2)c2ccccc12` [Example 587], the IC50 under setting [1] is below 10 µM.

Consider `O=C(O)Cc1cn(Cc2ccc(Oc3cccc(Cl)c3Cl)cc2)c2ccccc12` [Example 588], for which the IC50 under setting [1] is below 10 µM.

As to `O=C(O)Cc1cn(Cc2ccc(Oc3ccc(Cl)cc3Cl)cc2)c2ccccc12` [Example 589], the half-maximal inhibitory concentration (IC50) under setting [1] is below 10 µM.
